Reference: patent US7012144B2, “Quinolone carboxylic acid derivatives” (Korea Research Institute of Chemical Technology, priority 2001, dated 2006)
Values after ≈ are worked out from the molar mass of the structure shown. Like-named read-outs stand apart in the source and are kept apart here.

Assays:
[1] = tested on: Streptococcus pyogenes A 77; test: Antibacterial activity in vitro (MIC, two-fold dilution, Muller Hinton agar); format: cell-based
Experimental: (§1) The MIC values were determined employing a two-fold dilution method and Muller Hinton agar medium. Each of the Hoechst 345 standard strains having the concentration of 10^7CFU (colony forming unit)/ml was inoculated onto the medium, and incubated at 37° C. for 18 hours.

[2] = tested on: Staphylococcus aureus 503; test: as above; format: cell-based; conditions: 10^7 CFU/ml, 37° C., 18 hours
Experimental: as §1

Klebsiella oxytoca 1082E = test: as above; format: cell-based; conditions: 10^7 CFU/ml, 37° C., 18 hours
Experimental: as §1

Escherchia coli 078 = test: as above; format: cell-based; conditions: 10^7 CFU/ml, 37° C., 18 hours
Experimental: as §1

Escherchia coli 1507E = test: as above; format: cell-based; conditions: 10^7 CFU/ml, 37° C., 18 hours
Experimental: as §1

[3] = tested on: Pseudomonas aeruginosa 1771; test: as above; format: cell-based; conditions: 10^7 CFU/ml, 37° C., 18 hours
Experimental: as §1

Enterobacter cloacae P99 = test: as above; format: cell-based; conditions: 10^7 CFU/ml, 37° C., 18 hours
Experimental: as §1

[4] = tested on: Pseudomonas aeruginosa 1771M; test: as above; format: cell-based
Experimental: as §1

[5] = tested on: Pseudomonas aeruginosa 1592E; test: as above; format: cell-based; conditions: 10^7 CFU/ml, 37° C., 18 hours
Experimental: as §1

[6] = tested on: Streptococcus faecium MD 8b; test: as above; format: cell-based; conditions: 10^7 CFU/ml, 37° C., 18 hours
Experimental: as §1

[7] = tested on: Staphylococcus aureus SG 511; test: as above; format: cell-based; conditions: 37° C., 18 hours
Experimental: as §1

Escherchia coli DC2 = test: as above; format: cell-based
Experimental: as §1

[8] = tested on: Staphylococcus aureus 285; test: as above; format: cell-based
Experimental: as §1

[9] = tested on: Pseudomonas aeruginosa 9027; test: as above; format: cell-based; conditions: 10^7 CFU/ml, 37° C., 18 hours
Experimental: as §1

Escherchia coli TEM = test: as above; format: cell-based; conditions: 10^7 CFU/ml, 37° C., 18 hours
Experimental: as §1

[10] = tested on: Enterobacter cloacae 1321E; test: as above; format: cell-based; conditions: 10^7 CFU/ml, 37° C., 18 hours
Experimental: as §1

Salmonella typhymurium = test: as above; format: cell-based; conditions: 10^7 CFU/ml, 37° C., 18 hours
Experimental: as §1

Escherchia coli DC0 = test: as above; format: cell-based
Experimental: as §1

[11] = tested on: Streptococcus pyogenes A 308; test: as above; format: cell-based; conditions: 37° C., 18 hours
Experimental: as §1

Klebsiella oxytoca 1522E = test: as above; format: cell-based; conditions: 10^7 CFU/ml, 37° C., 18 hours
Experimental: as §1

gyrase of E. coli = biological target: T1, gyrase of E. coli (Escherichia coli, UniProt P0AES4+P0AES6); test: Inhibition of the enzyme activity of gyrase; format: biochemical; conditions: concentration to inhibit the enzyme activity of gyrase of E. coli
T1 construct: gyrase purified from of E. coli; host or cells: E. coli
Experimental: (§2) Selectivity indexes of the compounds of the present invention and control compounds were measured using gyrase purified from of E. coli and calf thymus topoisomerase II obtained from Topogen. Co.
(§3) The selectivity index (S.I.) was calculated by the equation 1. [formula] wherein, IC100, Topo II is the concentration of a compound to inhibit the enzyme activity of topoisomerase II and IC100, Gyrase is the concentration of a compound to inhibit the enzyme activity of gyrase of E. coli.

[12] = tested on: calf thymus topoisomerase II; test: Inhibition of the enzyme activity of topoisomerase II; format: biochemical; conditions: concentration to inhibit the enzyme activity of calf thymus topoisomerase II
Experimental: as §2, §3

[13] = Streptococcus pyogenes A 77, 10^7 CFU/ml, 37° C., 18 hours
[14] = Pseudomonas aeruginosa 1771M, 10^7 CFU/ml, 37° C., 18 hours
[15] = Escherchia coli DC2, 10^7 CFU/ml, 37° C., 18 hours
[16] = Staphylococcus aureus 285, 10^7 CFU/ml, 37° C., 18 hours
[17] = Escherchia coli DC0, 10^7 CFU/ml, 37° C., 18 hours
[18] = Pseudomonas aeruginosa, 1771M, 18 h
[19] = Enterococcus faecium, MD8B, read-out: MIC
[20] = SG511, 10^7 CFU/ml, read-out: MIC
[21] = A308, 10^7 CFU/ml, read-out: MIC

T1 sequence (P0AES4 whole entry, one chain of several): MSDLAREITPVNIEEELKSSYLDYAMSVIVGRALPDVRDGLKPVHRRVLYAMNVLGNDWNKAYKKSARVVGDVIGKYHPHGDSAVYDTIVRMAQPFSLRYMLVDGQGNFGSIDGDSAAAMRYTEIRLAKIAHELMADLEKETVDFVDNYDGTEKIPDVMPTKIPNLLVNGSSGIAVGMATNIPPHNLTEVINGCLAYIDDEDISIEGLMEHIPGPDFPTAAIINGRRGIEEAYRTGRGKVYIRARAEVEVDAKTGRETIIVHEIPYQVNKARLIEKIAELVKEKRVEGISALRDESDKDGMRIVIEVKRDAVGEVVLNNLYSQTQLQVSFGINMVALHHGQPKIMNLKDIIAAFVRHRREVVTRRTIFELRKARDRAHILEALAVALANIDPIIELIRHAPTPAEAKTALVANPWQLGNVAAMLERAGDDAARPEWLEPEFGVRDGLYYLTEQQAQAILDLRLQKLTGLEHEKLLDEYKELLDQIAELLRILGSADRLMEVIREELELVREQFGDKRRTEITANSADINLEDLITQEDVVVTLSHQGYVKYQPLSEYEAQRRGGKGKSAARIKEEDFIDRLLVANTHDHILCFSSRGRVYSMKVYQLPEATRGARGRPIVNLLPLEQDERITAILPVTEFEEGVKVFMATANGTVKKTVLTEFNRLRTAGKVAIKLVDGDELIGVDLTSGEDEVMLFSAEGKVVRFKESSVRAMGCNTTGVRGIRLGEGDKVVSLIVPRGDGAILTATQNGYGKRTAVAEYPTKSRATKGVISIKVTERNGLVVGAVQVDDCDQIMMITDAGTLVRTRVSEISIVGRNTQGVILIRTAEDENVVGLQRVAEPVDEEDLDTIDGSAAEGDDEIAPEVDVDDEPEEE

COc1c(N2CCC(CN)(c3ccccn3)C2)c(F)cc2c(=O)c(C(=O)O)cn(C3CC3)c12 (stereo not shown) [Compound 3, 1-cyclopropyl-6-fluoro-8-methoxy-7-[{3-aminomethyl-3-(pyridin-2-yl)pyrrolidin}-1-yl]-4-oxo-1,4-dihydroquinolin-3-carboxylic acid] gave an MIC [1, 13] of 0.007 µg/mL (≈ 0.0155 µM), an MIC [2] of 0.007 µg/mL (≈ 0.0155 µM) and an MIC (Klebsiella oxytoca 1082E) of less than 0.002 µg/mL. It also gave an MIC (Escherchia coli 078) of less than 0.002 µg/mL, an MIC (Escherchia coli 1507E) of 0.007 µg/mL (≈ 0.0155 µM) and an MIC [3] of 0.098 µg/mL (≈ 0.217 µM). It also gave an MIC (Enterobacter cloacae P99) of 0.007 µg/mL (≈ 0.0155 µM), an MIC [4, 14] of 0.098 µg/mL (≈ 0.217 µM) and an MIC [5] of 0.195 µg/mL (≈ 0.431 µM). The MIC [6] was 0.007 µg/mL (≈ 0.0155 µM), the MIC ([7]; 10^7 CFU/ml) was 0.007 µg/mL (≈ 0.0155 µM) and the MIC (Escherchia coli DC2; [15]) was 0.013 µg/mL (≈ 0.0287 µM). It also gave an MIC [8, 16] of 0.013 µg/mL (≈ 0.0287 µM), an MIC [9] of 0.195 µg/mL (≈ 0.431 µM) and an MIC (Escherchia coli TEM) of 0.007 µg/mL (≈ 0.0155 µM). The MIC [10] was less than 0.002 µg/mL, the MIC (Salmonella typhymurium) was 0.007 µg/mL (≈ 0.0155 µM) and the MIC (Escherchia coli DC0; [17]) was 0.049 µg/mL (≈ 0.108 µM). The MIC ([11]; 10^7 CFU/ml) was 0.013 µg/mL (≈ 0.0287 µM), the MIC (Klebsiella oxytoca 1522E) was 0.013 µg/mL (≈ 0.0287 µM) and the “IC100, Gyrase” value (gyrase of E. coli) was 0.2 µg/mL. The “IC100, Topo II” value [12] was 1,000 μg/ml.

COc1c(N2CCC(N)(c3ccncc3)C2)c(F)cc2c(=O)c(C(=O)O)cn(C3CC3)c12 (stereo not shown) [Compound 11, 1-cyclopropyl-6-fluoro-8-methoxy-7-[{3-amino-3-(pyridin-4-yl)pyrrolidin}-1-yl]-4-oxo-1,4-dihydroquinolin-3-carboxylic acid] showed an MIC [1, 13] of 0.013 µg/mL (≈ 0.0296 µM), an MIC [2] of 0.007 µg/mL (≈ 0.016 µM) and an MIC (Klebsiella oxytoca 1082E) of 0.002 µg/mL (≈ 0.00456 µM). The MIC (Escherchia coli 078) was less than 0.002 µg/mL, the MIC (Escherchia coli 1507E) was 0.013 µg/mL (≈ 0.0296 µM) and the MIC [3] was 0.195 µg/mL (≈ 0.445 µM). It also gave an MIC (Enterobacter cloacae P99) of 0.004 µg/mL (≈ 0.00912 µM), an MIC [4, 14] of 0.098 µg/mL (≈ 0.224 µM) and an MIC [5] of 0.195 µg/mL (≈ 0.445 µM). It also gave an MIC [6] of 0.025 µg/mL (≈ 0.057 µM), an MIC ([7]; 10^7 CFU/ml) of 0.013 µg/mL (≈ 0.0296 µM) and an MIC (Escherchia coli DC2; [15]) of 0.013 µg/mL (≈ 0.0296 µM). The MIC [8, 16] was 0.013 µg/mL (≈ 0.0296 µM), the MIC [9] was 0.195 µg/mL (≈ 0.445 µM) and the MIC (Escherchia coli TEM) was 0.007 µg/mL (≈ 0.016 µM). For the same molecule, the MIC [10] was 0.002 µg/mL (≈ 0.00456 µM), the MIC (Salmonella typhymurium) was 0.007 µg/mL (≈ 0.016 µM) and the MIC (Escherchia coli DC0; [17]) was 0.049 µg/mL (≈ 0.112 µM). For the same molecule, the MIC ([11]; 10^7 CFU/ml) was 0.025 µg/mL (≈ 0.057 µM), the MIC (Klebsiella oxytoca 1522E) was 0.013 µg/mL (≈ 0.0296 µM) and the “IC100, Gyrase” value (gyrase of E. coli) was 0.4 µg/mL. The “IC100, Topo II” value [12] was 1,000 μg/ml.

With O=C(O)c1cn(C2CC2)c2cc(N3CCNCC3)c(F)cc2c1=O [Ciprofloxacin, 1-cyclopropyl-6-fluoro-7-(piperazin-1-yl)-4-oxoquinoline-3-carboxylic acid, reference compound] the MIC ([1]; Streptococcus pyogenes, A77, 18 h) was 0.781 µg/mL (≈ 2.36 µM), the MIC ([2]; read-out: MIC) was 0.391 µg/mL (≈ 1.18 µM) and the MIC (Klebsiella oxytoca 1082E; read-out: MIC) was less than 0.002 µg/mL. It also gave an MIC (Escherchia coli 078; read-out: MIC) of 0.004 µg/mL (≈ 0.0121 µM), an MIC (Escherchia coli 1507E; read-out: MIC) of 0.007 µg/mL (≈ 0.0211 µM) and an MIC ([3]; read-out: MIC) of 0.195 µg/mL (≈ 0.589 µM). It also gave an MIC [4, 18] of 0.049 µg/mL (≈ 0.148 µM), an MIC ([5]; read-out: MIC) of 0.195 µg/mL (≈ 0.589 µM) and an MIC [6, 19] of 0.391 µg/mL (≈ 1.18 µM). For the same molecule, the MIC [7, 20] was 0.195 µg/mL (≈ 0.589 µM), the MIC (Escherchia coli DC2; 18 h) was 0.049 µg/mL (≈ 0.148 µM) and the MIC ([8]; Staphylococcus aureus, 285, 18 h) was 0.781 µg/mL (≈ 2.36 µM). It also gave an MIC ([9]; read-out: MIC) of 0.195 µg/mL (≈ 0.589 µM), an MIC (Escherchia coli TEM; read-out: MIC) of 0.007 µg/mL (≈ 0.0211 µM) and an MIC (Salmonella typhymurium; read-out: MIC) of 0.007 µg/mL (≈ 0.0211 µM). It also gave an MIC (Escherchia coli DC0; 18 h) of 0.195 µg/mL (≈ 0.589 µM), an MIC [11, 21] of 3.12 µg/mL (≈ 9.43 µM) and an MIC (Klebsiella oxytoca 1522E; read-out: MIC) of 0.013 µg/mL (≈ 0.0392 µM). For the same molecule, the “IC100, Gyrase” value (gyrase of E. coli) was 0.5 µg/mL and the “IC100, Topo II” value [12] was 500 µg/mL.

CC1CN(c2c(F)c(N)c3c(=O)c(C(=O)O)cn(C4CC4)c3c2F)CC(C)N1 (stereo not shown) [Sparfloxacin, 1-cyclopropyl-5-amino-6,8-difluoro-7-(3,5-dimethylpiperazin-1-yl)-4-oxoquinoline-3-carboxylic acid, reference compound] was tested, and the MIC ([1]; A77, Streptococcus pyogenes A 77, 10^7 CFU/ml, 37° C., 18 hours, read-out: MIC) was 0.195 µg/mL (≈ 0.497 µM), the MIC ([2]; read-out: MIC) was 0.049 µg/mL (≈ 0.125 µM) and the MIC (Klebsiella oxytoca 1082E; read-out: MIC) was less than 0.002 µg/mL. The MIC (Escherchia coli 078; read-out: MIC) was 0.004 µg/mL (≈ 0.0102 µM), the MIC (Escherchia coli 1507E; read-out: MIC) was 0.025 µg/mL (≈ 0.0637 µM) and the MIC ([3]; read-out: MIC) was 0.781 µg/mL (≈ 1.99 µM). For the same molecule, the MIC (Enterobacter cloacae P99; read-out: MIC) was 0.007 µg/mL (≈ 0.0178 µM), the MIC [4, 18] was 0.195 µg/mL (≈ 0.497 µM) and the MIC ([5]; read-out: MIC) was 0.781 µg/mL (≈ 1.99 µM). For the same molecule, the MIC [6, 19] was 0.391 µg/mL (≈ 0.996 µM), the MIC [7, 20] was 0.098 µg/mL (≈ 0.25 µM) and the MIC ([8]; Staphylococcus aureus 285, 10^7 CFU/ml, 37° C., 18 hours, read-out: MIC) was 0.049 µg/mL (≈ 0.125 µM). It also gave an MIC ([9]; read-out: MIC) of 0.781 µg/mL (≈ 1.99 µM), an MIC (Escherchia coli TEM; read-out: MIC) of 0.013 µg/mL (≈ 0.0331 µM) and an MIC ([10]; read-out: MIC) of 0.004 µg/mL (≈ 0.0102 µM). The MIC (Salmonella typhymurium; read-out: MIC) was 0.007 µg/mL (≈ 0.0178 µM), the MIC (Escherchia coli DC0; 18 h) was 0.195 µg/mL (≈ 0.497 µM) and the MIC [11, 21] was 0.391 µg/mL (≈ 0.996 µM). For the same molecule, the MIC (Klebsiella oxytoca 1522E; read-out: MIC) was 0.025 µg/mL (≈ 0.0637 µM), the “IC100, Gyrase” value (gyrase of E. coli) was 1.0 µg/mL and the “IC100, Topo II” value [12] was 500 µg/mL.
